# Measurements from US20190121935A1, “PHENOTYPIC PERSONALIZED MEDICINE: ADAPTIVE OPTIMIZATION OF PATIENT-SPECIFIC COMBINATION THERAPY” (THE REGENTS OF THE UNIVERSITY OF CALIFORNIA, priority 2015, published 2019).
# Tests used:
# [1] = human, in vivo
# Experimental: This prospective trial was conducted under IRB#14-001682, IRB#14-001682-AM-00001, and IRB#14-001682-AM-00002 approved by the UCLA Institutional Review Board. Following liver transplant, patients were started on a regimen of tacrolimus, mycophenolate, and methylprednisolone. According to protocol, methylprednisolone dosing was tapered using a 1000-150-[…]-120-80-40-20 mg regimen. Methylprednisolone was subsequently changed to prednisone given at 20 mg which was commonly followed with a tapering protocol. Mycophenolate dosing was administered according to protocols determined by the clinical team. Serum trough levels were taken between 4:00-6:00 AM daily, and a first dose of tacrolimus was administered between 5:00 AM-6:00 AM daily, following the serum trough recording. The clinical team obtained the daily treatment regimen details including drugs already administered, drugs to be administered, hemodialysis to be performed, co-infections, and planned prophylaxis and sent an updated clinical chart for each patient to the FSC team.
# Serum levels, drug regimen dosages, and other events such as hemodialysis were obtained every morning prior to analyses. In order to project optimum dosages, a 2nd order polynomial fit for each patient was made from linear regression with mainly two variables, such as trough concentration and tacrolimus dosing amount, and it was used with at least three prior data points for the specific patient.
# Statistical analyses were performed by analyzing the accuracy of correlating 2nd order polynomial mapping to the patients' data since patient-specific treatment was conducted in this study. This was accomplished using the coefficient of determination, or R-squared analysis. Values were used to correlate clinical and regression data. Where relevant, statistical significances of all the generated maps for the data analyses were determined using a t-test at α=0.05 level of confidence.
# [2] = Retrospective clinical analysis using FSC of liver transplant patient data (tacrolimus serum trough levels, Patients A and B); assay type: in vivo, human; conditions: standard of care (clinically observed), target 8-10 ng/ml
# Experimental: Retrospective clinical analysis was performed under IRB#14-001682 approved by the UCLA Institutional Review Board. Discharged liver transplantation patient data, such as serum level and drug regimen dosages, were obtained for analyses for the retrospective study. […] In this process, the inclusion of all the drugs as covariates allowed better representation of each patient's data and examination of the effects of drug-drug interactions within each patient's constructed map. Minimum values based on the difference between the individual patient's serum level reading and a target serum level during various small time windows were collected, and these were entered into the globally fitted map of each patient in order to find the optimum dose for that specific patient.
Serum Result (change of tacrolimus serum trough level on co-administration change) [1],share of treatment with trough levels outside of the target range [1] [%],trough reading higher than the anticipated trough level [1] [ng/mL],trough reading lower than the anticipated trough level [1] [ng/mL],day from which trough levels deviated permanently from the target range [2] [days],Compound
+0.7,–,–,–,–,CC(=O)NC[C@H]1CN(c2ccc(N3CCOCC3)c(F)c2)C(=O)O1 [Linezolid]
–,91,0.5,2.0,≥ 15,C=CC[C@@H]1/C=C(\C)C[C@H](C)C[C@H](OC)[C@H]2O[C@@](O)(C(=O)C(=O)N3CCCC[C@H]3C(=O)O[C@H](/C(C)=C/[C@@H]3CC[C@@H](O)[C@H](OC)C3)[C@H](C)[C@@H](O)CC1=O)[C@H](C)C[C@@H]2OC [tacrolimus]
